Blank lines part the entries; values can stand above or below the compound they belong to.
Tests used:
primary human neurons [1] = assay: MTT metabolism of neurons in astrocyte-neuron trans-well; assay type: cell-based
Procedure: (§1) Primary human astrocytes were grown to confluency on inserts. After 24 h of stimulation by the combination of Aβ (1 μM) and IL-Iβ (10 ng/ml), inserts were washed thrice with HBSS and then placed onto the wells containing primary human neurons. Therefore, in this trans-well model, although neurons and astrocytes face each other, they are separable and the effect of soluble factors released from activated astrocytes on neurons can be studied allowing analysis of neuronal and glial populations separately.
Mitochondrial activity was measured with the 3-(4,5-dimethylthiazol-2-yl)-2,5-diphenyltetrazolium bromide (MTT) assay (Sigma). The cells were grown on 24-well culture plates with 500 μl of medium and treated with various reagents according to the experimental design. At the end of the treatment period, 300 μl of culture medium were removed from each well, and 20 μl of MTT solution (5 mg/ml) were added and incubated for 1 h.
(§2) Primary human neurons were incubated with antisense (ASO) and scrambled oligonucleotides (ScO) against N-SMase (A) and A-SMase (FIG. 2B). After 48 h, neurons were analyzed for protein expression of N-SMase and A-SMase. In FIG. 2C, primary human astrocytes seeded in inserts were stimulated by the combination of Aβ and IL-1β as described above. […] After 6 h of treatment with activated astrocytes, apoptotic events in neurons were detected by TUNEL. In FIG. 2D, TUNEL-positive cells were counted manually in four different images of each of three coverslips by three individuals blinded to the experiment. […] Values obtained from the control group served as 100%, and data obtained in other groups were calculated as percent of control accordingly. […]
(§3) In FIGS. 3A-3E, primary human astrocytes seeded in inserts were stimulated by the combination of Aβ and IL-Iβ as described above. […] In FIG. 3A, after 1 h, activity of N-SMase was measured in total cell extracts of neurons as described above. […] Values obtained from the control group served as 100%, and data obtained in other groups were calculated as percent of control accordingly.

primary human neurons [2] = assay: LDH release from neurons in astrocyte-neuron trans-well; assay type: cell-based
Procedure: as §1
The activity of lactate dehydrogenase (LDH) was measured using the direct spectrophotometric assay using an assay kit from Sigma.
as §2, with “experiment. In FIG. 2E, after 18 h of stimulation, cell viability was examined by the metabolism of MTT and the release of LDH.” for “experiment.”
as §3, with “accordingly. […] Primary human neurons were treated with 25 μM DETA-NONOate (a NO donor) and at different time points of treatment, activities of N-SMase (FIG. 3D) and A-SMase (FIG. 3E) were monitored. ^ap<0.001 vs control (0 h).” for “accordingly.”

A-SMase = A-SMase activity in vivo in the cortex after microinjection; parameters: species or system C57/BL6 mice; settings: pre-microinjection of 1 μg oligonucleotide 24 h before 1 μg fibrillar Aβ1-42
Procedure: (§4) Activities of SMase(s) were assayed as described by. Briefly, after treatment, the cells were washed with PBS, harvested in PBS, divided into two halves, and centrifuged. The fraction for N-SMase was resuspended in buffer A (100 mM Tris-HCl, pH 7.4, 0.1% Triton X-100, 1 mM EDTA, and protease inhibitors), and the cell suspension was sonicated and centrifuged at 500×g at 4° C. for 5 min. The supernatant was used as the enzyme source for N-SMase. The reaction mixture contained enzyme preparation in buffer A containing 5 nmol of [^14C] sphingomyelin, 5 nmol of phosphatidylserine, 5 mM dithiothreitol, and 5 mM MgC¾ in a final volume of 100 μl. Similarly, the fraction for A-SMase was resuspended in buffer B (100 mM sodium acetate, pH 5.0, 0.1% Triton X-100, and protease inhibitors). The cell suspension was sonicated and centrifuged. The supernatant was used as the source of A-SMase. The activity of A-SMase was measured in a 100-μl reaction mixture consisting of the enzyme preparation in buffer B and 5 nmol of [^14C] sphingomyelin. The enzyme reaction was initiated by the addition of 50 μl of substrate and stopped by the addition of 1.5 ml of chloroform:methanol (2:1, v/v) and 0.2 ml of water. After vortexing and phase separation, the aqueous phase was removed for counting.
(§5) Control mice received saline injection. At indicated time points, cortex was dissected out and divided into two halves—one half for measuring activities of N-SMase (FIG. 7B) and A-SMase (FIG. 7C) and the other for assaying ceramide (FIG. 7D). Control (saline—6 h) group served as 100%, and data from other groups were expressed as percentage of control. Results are mean+SD of five different mice (n=5). ^ap<0.05 vs saline—6 h.

iNOS, GFAP and CD11b = assay: Immunofluorescence of iNOS, GFAP and CD11b in the cortex of Aβ-microinjected mice; assay type: in vivo, C57/BL6 mice; settings: 1 μg oligonucleotide 24 h before Aβ; at both 6 h and 24 h of microinjection
Procedure: […], mice were perfused with 4% paraformaldehyde and their brains were processed for immunohistochemical studies. For double labeling of GFAP with iNOS, sections (6 μm) were incubated with polyclonal anti-GFAP (GFAP: 1000 dilution; Calbiochem) and anti-iNOS (iNOS: 1000 dilution; Calbiochem) for 24 h at 4° C. After three washes in PBST (15 min each), slides were further incubated with Cy5 and Cy2 (Jackson ImmunoResearch Laboratories, Inc.) secondary antibodies for 2 h at room temperature. For negative controls, a set of tissue sections was incubated under similar conditions without the primary antibodies. The samples were mounted and observed under a Bio-Rad MRC1024ES confocal laser scanning microscope.
After 6 h of Aβ microinjection, mice were perfused and double immunofluorescence for GFAP (green) and iNOS (red) (FIG. 8A) and CD 11b (green) and iNOS (red) (FIG. 8B) was performed.

[3] = system: neurons (NeuN-positive cells); assay: TUNEL/NeuN neuronal apoptosis in vivo in the cortex of Aβ-microinjected mice; settings: 1 μg oligonucleotide 24 h before Aβ; 24 h after final microinjection
N-SMase [4] = biological target: T1, N-SMase (Homo sapiens, UniProt Q9NY59); assay: Assay of N-SMase activity in primary human neurons; assay type: cell-based
T1 construct: endogenous in cells; host or cells: primary human neurons
T1 sequence (Q9NY59 1-655): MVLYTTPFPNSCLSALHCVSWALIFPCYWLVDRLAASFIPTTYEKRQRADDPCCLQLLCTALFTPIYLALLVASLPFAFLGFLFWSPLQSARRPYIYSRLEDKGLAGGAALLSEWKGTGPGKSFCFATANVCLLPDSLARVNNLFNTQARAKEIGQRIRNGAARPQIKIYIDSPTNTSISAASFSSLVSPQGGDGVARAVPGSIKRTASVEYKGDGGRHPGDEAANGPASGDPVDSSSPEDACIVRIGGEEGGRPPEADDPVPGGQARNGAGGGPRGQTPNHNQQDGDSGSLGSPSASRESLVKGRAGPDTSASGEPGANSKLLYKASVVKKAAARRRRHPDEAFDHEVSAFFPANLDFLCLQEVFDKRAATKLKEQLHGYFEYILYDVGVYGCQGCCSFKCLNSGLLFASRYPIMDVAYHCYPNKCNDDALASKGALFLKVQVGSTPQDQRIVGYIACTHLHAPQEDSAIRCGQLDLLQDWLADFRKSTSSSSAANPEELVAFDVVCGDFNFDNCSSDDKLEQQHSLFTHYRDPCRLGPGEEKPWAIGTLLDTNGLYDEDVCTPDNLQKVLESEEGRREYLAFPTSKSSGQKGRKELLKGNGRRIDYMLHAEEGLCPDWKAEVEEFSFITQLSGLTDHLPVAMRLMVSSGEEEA
Procedure: as §4
In FIGS. 3A-3E, primary human astrocytes seeded in inserts were stimulated by the combination of Aβ and IL-Iβ as described above. After 24 h, media were removed and inserts were washed and placed on neurons that were pretreated with PTIO for 30 min. In FIG. 3A, after 1 h, activity of N-SMase was measured in total cell extracts of neurons as described above. After 18 h, neuronal viability was examined by the metabolism of MTT (FIG. 3B) and the release of LDH (FIG. 3C). Values obtained from the control group served as 100%, and data obtained in other groups were calculated as percent of control accordingly. Results are mean+S.D. of three different experiments. ^ap<0.001 vs control; ^bp<0.001 vs activated astrocytes. Primary human neurons were treated with 25 μM DETA-NONOate (a NO donor) and at different time points of treatment, activities of N-SMase (FIG. 3D) and A-SMase (FIG. 3E) were monitored. ^ap<0.001 vs control (0 h).

N-SMase [5] = assay: N-SMase activity in vivo in the cortex after microinjection; parameters: species or system C57/BL6 mice; settings: pre-microinjection of 1 μg oligonucleotide 24 h before 1 μg fibrillar Aβ1-42
Procedure: as §4, §5

primary human astroglia = assay: NO synthesis (nitrite, Griess reagent) in primary human astroglia; assay type: cell-based; settings: astroglia preincubated 30 min with different concentrations of chemical inhibitor; nitrite after 24 h
Procedure: Synthesis of NO was determined by assay of culture supernatants for nitrite, a stable reaction product of NO with molecular oxygen, using Griess reagent as described.
After 24 h of stimulation, the concentration of nitrite was measured in supernatants (FIG. 4A) by Griess reagent. […] Cells were treated with ASO/ScO for 40 h followed by stimulation with the combination of fibrillar Aβ and IL-Iβ as above. After 6 h, the expression of iNOS mRNA was analyzed by both semi-quantitative RT-PCR (C) and quantitative real-time PCR (FIG. 4D). The expression of TNF-a, IL-6 and IL-Iβ mRNAs were analyzed by semi-quantitative RT-PCR (FIG. 4E). Results are mean±SD of three different experiments. ^ap<0.001 vs control; ^bp<0.001 vs (Aβ+IL-Iβ).

NF-κB = assay: EMSA of NF-κB DNA-binding activity in primary human astroglia; assay type: cell-based; settings: chemical inhibitor, different concentrations, 30 min preincubation; 1 h of stimulation
primary human astrocytes = assay: GFAP and iNOS double-labeling of primary human astrocytes stimulated with Aβ peptides; assay type: cell-based; settings: peptide stimulation for 24 h
Procedure: In FIG. 5A, primary astrocytes were stimulated with fibrillar Aβ1-42, oligomeric Aβ1-42 and reverse peptide Aβ42-1 for 24 h followed by double-labeling of GFAP and iNOS. In FIG. 5B, primary human astrocytes seeded in inserts were stimulated with a combination of I μM of oligomeric Aβ1-42 and 10 ng/ml of IL-Iβ in serum free media. […] After 6 h, neuronal apoptosis was monitored by TUNEL. In FIG. 5C, TUNEL-positive cells were counted manually in four different images of each of three coverslips by three individuals blinded to the experiment. Values obtained from the control group (1) served as 100%, and data obtained from other three groups i.e. the oligomeric Aβ-activated astrocytes (OAA) group (2), the ASO-OAA group (3), and the ScO-OAA group (4) was calculated as percent of control accordingly. Results are mean+S.D. of three different experiments. ^ap<0.001 vs control; ^bp<0.001 vs OAA.

[6] = neurons pretreated with oligonucleotide, 18 h of stimulation
[7] = neurons pretreated with PTIO for 30 min, after 18 h

Compound: 5′- CACGCGTCCGACGCCGCACGA -3′ (DNA, all phosphorothioate, methylation of C not given here) [ScO against N-SMase, ID; NO.: 13]
activated astroglia-mediated loss of MTT metabolism (primary human neurons [1]; [6]): showed no effect | LDH release from neurons (primary human neurons [2]; [6]): showed no effect

Compound: 5′-CACGCGTCCGACGCCGCACGA-3′ (DNA CACGCGTCCGACGCCGCACGA; chemistry not given here) [mN-SMase ScO]
activity of A-SMase in fibrillar Aβ-microinjected cortex (A-SMase): did not influence | expression of iNOS, GFAP and CD11b in vivo in the cortex of Aβ-microinjected mice (iNOS, GFAP and CD11b): had no effect | Aβ-induced apoptotic death in vivo in the cortex (TUNEL/NeuN) [3]: did not ameliorate

activation of N-SMase by NO donor alone (N-SMase [4]; primary human neurons, 25 μM, different time points): markedly induced
Compound: NCCN(CCN)/[N+]([O-])=N/O [DETA-NONOate]

Compound: 5′-CAGCGAGCCGGTCCACCAGCC-3′ (antisense CAGCGAGCCGGTCCACCAGCC; chemistry not given here) [mN-SMase ASO]
Aβ1-42-induced activation of N-SMase in vivo in the cortex (N-SMase [5]): capable of suppressing | activity of A-SMase in fibrillar Aβ-microinjected cortex (A-SMase): did not influence | expression of iNOS, GFAP and CD11b in vivo in the cortex of Aβ-microinjected mice (iNOS, GFAP and CD11b): dramatically reduced | Aβ-induced apoptotic death in vivo in the cortex (TUNEL/NeuN) [3]: blocked

activity of N-SMase (N-SMase [4]; activated astroglia-insulted human neurons, chemical inhibitors): strongly suppressed | (Aβ+IL-1β)-induced DNA-binding activity of NF-κB (NF-κB): markedly suppressed
Compound: O=C(/C=C/c1ccc(/C=C/C(=O)Nc2ccc(C3=NCCN3)cc2)cc1)Nc1ccc(C2=NCCN2)cc1 [GW4869]
(Aβ+IL-1β)-induced production of NO (primary human astroglia): markedly suppressed

ability of activated astrocytes to induce the activation of N-SMase (N-SMase [4]; neurons pretreated with PTIO for 30 min, measured after 1 h): reduced the ability
Compound: CC1(C)N([O])C(c2ccccc2)=[N+]([O-])C1(C)C [PTIO]
ability of activated astrocytes to decrease MTT metabolism (primary human neurons [1]; [7]): reduced the ability | ability of activated astrocytes to increase the release of LDH (primary human neurons [2]; [7]): reduced the ability

Compound: oligomeric Aβ: Aβ1-42 prepared after incubation at 37° C. for 2 days
astroglial iNOS protein and GFAP (primary human astrocytes): also induced iNOS and upregulated GFAP

— patent publication US9006205B2, “Antisense oligonucleotides against neutral sphingomyelinase and neutral sphingomyelinase inhibitor GW4869 for degenerative neurological disorders” (Rush University Medical Center, priority 2011, dated 2015)
